Tests used:
[1] = test system: soybean; experiment: Test A postemergence; type: in vivo, Glycine max; settings: postemergence, 10 days; for Plant response rating, Soybean: visual injury
Outline: (§1)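 Loam/sand soil; pre-em directed soil spray at planting, post-em spray at 1–2 leaf (2–10 cm). Compound in non-phytotoxic solvent + surfactant. Greenhouse 10 d; visual injury vs untreated, 0 = no effect, 100 = complete control.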

[2] = test system: soybean; experiment: Test A preemergence; type: in vivo, Glycine max
Outline: as §1

[3] = test system: ducksalad; experiment: Test B flooded paddy test; type: in vivo, Heteranthera limosa; settings: 250 g ai/ha, Flood, 13 days, 0 to 100 scale (0 no effect, 100 complete control)
Outline: (§2)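 Flooded to 3 cm at treatment time, 2-leaf plants got the test compound applied straight into the paddy water. They then stayed under constant flood in a greenhouse for 13 days. Ratings used a 0 to 100 visual scale.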

[4] = test system: ryegrass, Italian; experiment: Test A preemergence; type: in vivo, Lolium multiflorum
Outline: as §1

[5] = test system: sedge, umbrella; experiment: Test B flooded paddy test; type: in vivo, Cyperus difformis; settings: 250 g ai/ha, Flood, 13 days, 0 to 100 scale (0 no effect, 100 complete control)
Outline: as §2

[6] = test system: pigweed, palmer; experiment: Test A postemergence; type: in vivo, Amaranthus palmeri; settings: postemergence, 10 days; for Plant response rating, Pigweed, Palmer: visual injury
Outline: as §1

[7] = test system: barnyardgrass; experiment: Test B flooded paddy test; type: in vivo, Echinochloa crus-galli; settings: 250 g ai/ha, Flood, 13 days, 0 to 100 scale (0 no effect, 100 complete control)
Outline: as §2

[8] = test system: oat, wild; experiment: Test A postemergence; type: in vivo, Avena fatua; settings: postemergence, 10 days; for Plant response rating, Oat, Wild: visual injury
Outline: as §1

[9] = test system: kochia; experiment: Test A preemergence; type: in vivo, Bassia scoparia
Outline: as §1

[10] = test system: ryegrass, Italian; experiment: Test A postemergence; type: in vivo, Lolium multiflorum; settings: postemergence, 10 days; for Plant response rating, Ryegrass, Italian: visual injury
Outline: as §1

[11] = test system: ragweed; experiment: Test A postemergence; type: in vivo, Ambrosia artemisiifolia; settings: postemergence, 10 days; for Plant response rating, Ragweed: visual injury
Outline: as §1

[12] = test system: ragweed; experiment: Test A preemergence; type: in vivo, Ambrosia artemisiifolia
Outline: as §1

[13] = test system: goosegrass; experiment: Test A preemergence; type: in vivo, Eleusine indica
Outline: as §1

[14] = test system: corn; experiment: Test A preemergence; type: in vivo, Zea mays
Outline: as §1

[15] = test system: rice; experiment: Test B flooded paddy test; type: in vivo, Oryza sativa; settings: 250 g ai/ha, Flood, 13 days, 0 to 100 scale (0 no effect, 100 complete control)
Outline: as §2

[16] = test system: kochia; experiment: Test A postemergence; type: in vivo, Bassia scoparia; settings: postemergence, 10 days; for Plant response rating, Kochia: visual injury
Outline: as §1

[17] = test system: foxtail, giant; experiment: Test A preemergence; type: in vivo, Setaria faberi
Outline: as §1

[18] = test system: oat, wild; experiment: Test A preemergence; type: in vivo, Avena fatua
Outline: as §1

[19] = test system: wheat; experiment: Test A postemergence; type: in vivo, Triticum aestivum; settings: postemergence, 10 days; for Plant response rating, Wheat: visual injury
Outline: as §1

[20] = test system: goosegrass; experiment: Test A postemergence; type: in vivo, Eleusine indica; settings: postemergence, 10 days; for Plant response rating, Goosegrass: visual injury
Outline: as §1

[21] = test system: corn; experiment: Test A postemergence; type: in vivo, Zea mays; settings: postemergence, 10 days; for Plant response rating, Corn: visual injury
Outline: as §1

[22] = test system: wheat; experiment: Test A preemergence; type: in vivo, Triticum aestivum
Outline: as §1

[23] = test system: blackgrass; experiment: Test A preemergence; type: in vivo, Alopecurus myosuroides
Outline: as §1

[24] = test system: blackgrass; experiment: Test A postemergence; type: in vivo, Alopecurus myosuroides; settings: postemergence, 10 days; for Plant response rating, Blackgrass: visual injury
Outline: as §1

[25] = test system: foxtail, giant; experiment: Test A postemergence; type: in vivo, Setaria faberi; settings: postemergence, 10 days; for Plant response rating, Foxtail, Giant: visual injury
Outline: as §1

[26] = test system: pigweed, palmer; experiment: Test A preemergence; type: in vivo, Amaranthus palmeri
Outline: as §1

[27] = test system: horseweed; experiment: Test A postemergence; type: in vivo, Erigeron canadensis; settings: postemergence, 10 days; for Plant response rating, Horseweed: visual injury
Outline: as §1

[28] = 125 g ai/ha, 0 to 100 scale, 0 no effect, 100 complete control
[29] = 500 g ai/ha, 0 to 100 scale (0 no effect, 100 complete control)
[30] = 125 g ai/ha, visual injury after 10 days, 0 to 100 scale, 0 is no effect, 100 is complete control
[31] = 500 g ai/ha, 0 to 100 scale (0 no effect, 100 complete control), 10 days
[32] = 31 g ai/ha, 0 to 100 scale (0 no effect, 100 complete control)
[33] = 125 g ai/ha, 0 to 100 scale (0 no effect, 100 complete control)

SMILES: COc1ccc(-n2cnc(C)n2)cc1C(=O)N1C[C@H](C)Oc2c(Cl)cccc21 [Compound 89]
- Soybean plant response rating [1, 28]: 100
- Plant response rating, Soybean [1, 29]: 100
- Plant response rating, Soybean [2, 30]: 100
- Plant response rating, Soybean [2, 31]: 100
- Plant response rating, Ducksalad [3]: 100
- Plant response rating, Ryegrass, Italian [4, 30]: 90
- Plant response rating, Ryegrass, Italian [4, 31]: 100
- Plant response rating, Sedge, Umbrella [5]: 100
- Pigweed, Palmer plant response rating [6, 28]: 70
- Plant response rating, Pigweed, Palmer [6, 29]: 100
- Plant response rating, Barnyardgrass [7]: 60
- Oat, Wild plant response rating [8, 28]: 80
- Plant response rating, Oat, Wild [8, 29]: 90
- Plant response rating, Kochia [9, 30]: 70
- Plant response rating, Kochia [9, 31]: 100
- Ryegrass, Italian plant response rating [10, 28]: 100
- Plant response rating, Ryegrass, Italian [10, 29]: 100
- Ragweed plant response rating [11, 28]: 60
- Plant response rating, Ragweed [11, 29]: 80
- Plant response rating, Ragweed [12, 30]: 40
- Plant response rating, Ragweed [12, 31]: 90
- Plant response rating, Goosegrass [13, 30]: 100
- Plant response rating, Goosegrass [13, 31]: 100
- Plant response rating, Corn [14, 30]: 20
- Plant response rating, Corn [14, 31]: 60
- Plant response rating, Rice [15]: 15
- Kochia plant response rating [16, 28]: 70
- Plant response rating, Kochia [16, 29]: 90
- Plant response rating, Foxtail, Giant [17, 30]: 100
- Plant response rating, Foxtail, Giant [17, 31]: 100
- Plant response rating, Oat, Wild [18, 30]: 70
- Plant response rating, Oat, Wild [18, 31]: 90
- Wheat plant response rating [19, 28]: 50
- Plant response rating, Wheat [19, 29]: 50
- Goosegrass plant response rating [20, 28]: 90
- Plant response rating, Goosegrass [20, 29]: 100
- Corn plant response rating [21, 28]: 70
- Plant response rating, Corn [21, 29]: 70
- Plant response rating, Wheat [22, 30]: 20
- Plant response rating, Wheat [22, 31]: 60
- Plant response rating, Blackgrass [23, 30]: 70
- Plant response rating, Blackgrass [23, 31]: 90
- Blackgrass plant response rating [24, 28]: 70
- Plant response rating, Blackgrass [24, 29]: 80
- Foxtail, Giant plant response rating [25, 28]: 90
- Plant response rating, Foxtail, Giant [25, 29]: 100
- Plant response rating, Pigweed, Palmer [26, 30]: 90
- Plant response rating, Pigweed, Palmer [26, 31]: 100
- Horseweed plant response rating [27, 28]: 20
- Plant response rating, Horseweed [27, 29]: 40

SMILES: Cc1ccc(-n2cnc(Br)n2)cc1C(=O)N1C[C@H](C)Oc2c(Cl)cccc21 [Compound 62]
- Soybean plant response rating [1, 32]: 100
- Plant response rating, Soybean [1, 33]: 100
- Plant response rating, Soybean ([2]; 31 g ai/ha, 0 to 100 scale): 0
- Plant response rating, Soybean [2, 30]: 0
- Plant response rating, Ducksalad [3]: 0
- Plant response rating, Ryegrass, Italian ([4]; 31 g ai/ha, 0 to 100 scale): 0
- Plant response rating, Ryegrass, Italian [4, 30]: 70
- Plant response rating, Sedge, Umbrella [5]: 0
- Pigweed, Palmer plant response rating [6, 32]: 40
- Plant response rating, Pigweed, Palmer [6, 33]: 50
- Plant response rating, Barnyardgrass [7]: 0
- Oat, Wild plant response rating [8, 32]: 0
- Plant response rating, Oat, Wild [8, 33]: 20
- Plant response rating, Kochia ([9]; 31 g ai/ha, 0 to 100 scale): 10
- Plant response rating, Kochia [9, 30]: 80
- Ryegrass, Italian plant response rating [10, 32]: 0
- Plant response rating, Ryegrass, Italian [10, 33]: 40
- Ragweed plant response rating [11, 32]: 10
- Plant response rating, Ragweed [11, 33]: 20
- Plant response rating, Ragweed ([12]; 31 g ai/ha, 0 to 100 scale): 0
- Plant response rating, Ragweed [12, 30]: 20
- Plant response rating, Goosegrass ([13]; 31 g ai/ha, 0 to 100 scale): 70
- Plant response rating, Goosegrass [13, 30]: 100
- Plant response rating, Corn ([14]; 31 g ai/ha, 0 to 100 scale): 0
- Plant response rating, Corn [14, 30]: 0
- Plant response rating, Rice [15]: 0
- Kochia plant response rating [16, 32]: 80
- Plant response rating, Kochia [16, 33]: 90
- Plant response rating, Foxtail, Giant ([17]; 31 g ai/ha, 0 to 100 scale): 20
- Plant response rating, Foxtail, Giant [17, 30]: 90
- Plant response rating, Oat, Wild ([18]; 31 g ai/ha, 0 to 100 scale): 0
- Plant response rating, Oat, Wild [18, 30]: 0
- Wheat plant response rating [19, 32]: 10
- Plant response rating, Wheat [19, 33]: 10
- Goosegrass plant response rating [20, 32]: 10
- Plant response rating, Goosegrass [20, 33]: 20
- Corn plant response rating [21, 32]: 10
- Plant response rating, Corn [21, 33]: 10
- Plant response rating, Wheat ([22]; 31 g ai/ha, 0 to 100 scale): 0
- Plant response rating, Wheat [22, 30]: 0
- Plant response rating, Blackgrass ([23]; 31 g ai/ha, 0 to 100 scale): 0
- Plant response rating, Blackgrass [23, 30]: 40
- Blackgrass plant response rating [24, 32]: 40
- Plant response rating, Blackgrass [24, 33]: 50
- Foxtail, Giant plant response rating [25, 32]: 20
- Plant response rating, Foxtail, Giant [25, 33]: 90
- Plant response rating, Pigweed, Palmer ([26]; 31 g ai/ha, 0 to 100 scale): 70
- Plant response rating, Pigweed, Palmer [26, 30]: 90
- Horseweed plant response rating [27, 32]: 0
- Plant response rating, Horseweed [27, 33]: 0

Reference: US20260262643A1, “HERBICIDAL BENZOXAZINES” (FMC CORPORATION, priority 2022, published 2026)
